Reference: US11078213B2, “Thienopyrimidine compound, preparation method thereof, pharmaceutical composition and application thereof” (HONGYUN BIOTECH CO., LTD., priority 2016, dated 2021)

Target: T1, NPM-ALK-BaF3 (Homo sapiens, UniProt Q9UM73)
T1 construct: NPM (nuclear phosphoprotein / nucleophosmin, NPM1, P06748) fusion partner; expressed in transfected cells; host or cells: BaF3; the other entry of the earlier key: NPM1 (P06748, Nucleophosmin)
Assay: Growth inhibition of BaF3 cells stably transfected with kinase NPM-ALK (MTS)
Type: cell-based
Settings: compound concentration 3.3 μM, read-out: cell growth inhibition rate, NPM-ALK
Protocol: The specific test method is given as follows:
2) Reagent: MTS reaction solution (containing 2 mg/mL of MTS [3-(4,5-dimethylthiazol-2-yl)-5-(3-carboxymethoxyphenyl)-2-(4-sulfophenyl)-2H-tetra zolium, inner Salt]; 100 µg/mL PES ([…])).

T1 sequence (Q9UM73 with tags, fused parts or gaps): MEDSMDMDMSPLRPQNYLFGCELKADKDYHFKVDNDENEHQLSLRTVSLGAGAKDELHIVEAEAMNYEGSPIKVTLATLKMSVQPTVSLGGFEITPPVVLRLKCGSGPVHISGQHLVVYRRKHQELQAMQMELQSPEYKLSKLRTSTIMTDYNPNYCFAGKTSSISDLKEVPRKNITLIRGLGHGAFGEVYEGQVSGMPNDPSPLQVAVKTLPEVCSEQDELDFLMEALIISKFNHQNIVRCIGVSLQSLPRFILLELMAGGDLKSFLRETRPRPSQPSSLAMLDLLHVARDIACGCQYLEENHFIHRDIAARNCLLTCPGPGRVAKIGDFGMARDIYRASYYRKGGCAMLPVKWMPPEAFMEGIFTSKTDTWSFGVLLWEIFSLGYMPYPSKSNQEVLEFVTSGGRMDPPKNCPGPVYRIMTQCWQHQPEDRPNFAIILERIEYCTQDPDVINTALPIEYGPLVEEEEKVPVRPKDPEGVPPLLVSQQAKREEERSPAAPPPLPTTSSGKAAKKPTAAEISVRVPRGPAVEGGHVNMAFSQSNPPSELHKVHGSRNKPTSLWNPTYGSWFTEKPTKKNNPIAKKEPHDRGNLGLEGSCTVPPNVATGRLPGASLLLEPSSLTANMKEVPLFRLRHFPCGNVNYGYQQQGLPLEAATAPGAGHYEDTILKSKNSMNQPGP

For `COc1cc(N2CCC(N3CCN(C)CC3)CC2)ccc1Nc1nc(Nc2ccccc2NS(C)(=O)=O)c2sccc2n1` [IH-2], the inhibition at 3.3 µM was 85.1%.
Compound `COc1cc(N2CCC(N3CCN(C)CC3)CC2)ccc1Nc1nc(Nc2cccc(NS(C)(=O)=O)c2)c2sccc2n1` [IG-2] has an inhibition at 3.3 µM of 17.4%.
In the case of `COc1cc(N2CCC(O)CC2)ccc1Nc1nc(Nc2ccccc2S(=O)(=O)C(C)C)c2sccc2n1` [IB-19], the inhibition at 3.3 µM is reported as 84.9%.
`CC(C)S(=O)(=O)c1ccccc1Nc1nc(Nc2ccc(N3CCOCC3)nc2)nc2ccsc12` [IB-16] was tested, and the inhibition at 3.3 µM was 77.5%.
`CC(C)S(=O)(=O)c1nn(C)cc1Nc1nc(Nc2ccc(N3CCN(C)CC3)cc2)nc2ccsc12` [IC-3] was tested, and the inhibition at 3.3 µM was 46.5%.
`COc1cc(C2CCN(C)CC2)c(C)cc1Nc1nc(Nc2ccccc2S(C)(=O)=O)c2sccc2n1` [IA-5] showed an inhibition at 3.3 µM of 90.9%.
`CC(C)S(=O)(=O)c1ccccc1CNc1nc(Nc2ccc(N3CCC(O)CC3)cc2)nc2ccsc12` [IM-4] was tested, and the inhibition at 3.3 µM was 53.1%.
For `CNC(=O)c1ccccc1Nc1nc(Nc2ccc(N3CCN(C)CC3)cc2)nc2ccsc12` [II-2], the inhibition at 3.3 µM was 28.1%.
Work on `CC(C)S(=O)(=O)c1ccccc1Nc1nc(Nc2ccc(C(=O)N3CCC(N4CCN(C)CC4)CC3)cc2)nc2ccsc12` [IB-29] yielded an inhibition at 3.3 µM of 97.5%.
For `CS(=O)(=O)Nc1cccc(Nc2nc(Nc3ccc(N4CCC(O)CC4)cc3)nc3ccsc23)c1` [IG-3], the inhibition at 3.3 µM was 21.6%.
In the case of `CCOc1cc(N2CCN(C)CC2)ccc1Nc1nc(Nc2ccccc2S(=O)(=O)C(C)C)c2sccc2n1` [IB-28], the inhibition at 3.3 µM is reported as 96.5%.
With `CS(=O)(=O)c1ccccc1CNc1nc(Nc2ccc(N3CCC(O)CC3)cc2)nc2ccsc12` [IL-4] the inhibition at 3.3 µM was 45.8%.
Work on `COC(=O)c1cccc(Nc2nc(Nc3cc4c(cc3OC)CCN4C(=O)CN(C)C)nc3ccsc23)c1` [ID-1] yielded an inhibition at 3.3 µM of 73.4%.
With `CNC(=O)c1ccccc1Nc1nc(Nc2ccc(N3CCN(C)CC3)cc2OC)nc2ccsc12` [II-3] the inhibition at 3.3 µM was 84.1%.
In the case of `CC(C)S(=O)(=O)c1ccccc1Nc1nc(Nc2ccc(S(=O)(=O)N3CCN(C)CC3)cc2)nc2ccsc12` [IB-21], the inhibition at 3.3 µM is reported as 72.1%.
`COc1cc(N2CCC(N3CCN(C)CC3)CC2)ccc1Nc1nc(NCc2ccccc2S(=O)(=O)C(C)C)c2sccc2n1` [IM-2] was tested, and the inhibition at 3.3 µM was 20.6%.
`COc1cc(N2CCC(N3CCCC3)CC2)ccc1Nc1nc(Nc2ccccc2S(=O)(=O)C(C)C)c2sccc2n1` [IB-7] was tested, and the inhibition at 3.3 µM was 92.8%.
With `CCOc1cc(C(=O)N2CCC(N3CCN(C)CC3)CC2)ccc1Nc1nc(Nc2ccccc2S(=O)(=O)C(C)C)c2sccc2n1` [IB-13] the inhibition at 3.3 µM was 90.3%.
Work on `Cc1cc(Nc2nc(Nc3ccccc3S(=O)(=O)C(C)C)c3sccc3n2)c(OC(C)C)cc1C1CCN(C)CC1` [IB-9] yielded an inhibition at 3.3 µM of 88.5%.
For `COc1cc2c(cc1Nc1nc(NCc3ccccc3S(C)(=O)=O)c3sccc3n1)N(C(=O)CN(C)C)CC2` [IL-1], the inhibition at 3.3 µM was 73.7%.
In the case of `CNC(=O)c1ccccc1Nc1nc(Nc2ccc(N3CCC(N4CCN(C)CC4)CC3)cc2OC)nc2ccsc12` [II-1], the inhibition at 3.3 µM is reported as 46.3%.
With `CC(C)S(=O)(=O)c1ccccc1Nc1nc(Nc2ccc(S(=O)(=O)N3CCC(O)CC3)cc2)nc2ccsc12` [IB-11] the inhibition at 3.3 µM was 60.9%.
Compound `CS(=O)(=O)Nc1cccc(Nc2nc(Nc3ccc(S(N)(=O)=O)cc3)nc3ccsc23)c1` [IG-6] has an inhibition at 3.3 µM of 3.07%.
`CC(C)S(=O)(=O)c1ccccc1Nc1nc(Nc2ccc(N3CCC(O)CC3)nc2)nc2ccsc12` [IB-23] was tested, and the inhibition at 3.3 µM was 96.7%.
`COc1cc2c(cc1Nc1nc(Nc3cn(C)nc3S(=O)(=O)C(C)C)c3sccc3n1)N(C(=O)CN(C)C)CC2` [IC-1] gave an inhibition at 3.3 µM of 82.4%.
For `CN1CCN(c2ccc(Nc3nc(NCc4ccccc4S(C)(=O)=O)c4sccc4n3)cc2)CC1` [IL-3], the inhibition at 3.3 µM was 56.8%.
`CC(C)S(=O)(=O)c1ccccc1Nc1nc(Nc2ccc(N3CCC(N4CCN(C)CC4)CC3)cc2)nc2ccsc12` [IB-6] gave an inhibition at 3.3 µM of 93.2%.
`CC(C)S(=O)(=O)c1ccccc1CNc1nc(Nc2ccc(N3CCN(C)CC3)cc2)nc2ccsc12` [IM-3] gave an inhibition at 3.3 µM of 52.5%.
`COC(=O)c1cccc(Nc2nc(Nc3ccc(N4CCN(C)CC4)cc3OC)nc3ccsc23)c1` [ID-2] was tested, and the inhibition at 3.3 µM was 44.7%.
